Residues, ends and D or L forms follow the SMILES beside them. *: point of attachment. Cbz = O=C(OCc1ccccc1)*; CH2F = FC*
Experiments:
Type in all cases: cell-based, human
ICAM-1 expression = test: Flow cytometry of ICAM-1 cell surface expression induced by TNF in HUVEC; conditions: HUVEC treated with TNF
Protocol: Activation of the nuclear factor-κB (NF-κB) promotes survival of cells exposed to TNF (Beg & Baltimore, Science 274, 782-784; Van Antwerp et al., Science 274, 787-789 (1996)). Since cell adhesion via integrins activates NF-κB (Scatena et al., J. Cell Biol. 141, 1083-1093 (1998)), we investigated whether the sensitivity of spheroids to TNF-induced apoptosis was due to lack of NF-κB activation. NF-κB activation was assessed by measuring I-κB phosphorylation and degradation, NF-κB nuclear translocation and cell surface expression of ICAM-1, an NF-κB-induced gene (Collins et al., Faseb J. 9, 899-909. (1995)), in spheroid and fibronectin-adherent HUVEC cultures exposed to TNF±IFNγ.
Aktmp suppresses TNF-induced apoptosis of spheroids in the presence of active NF-κB. We also tested whether both NF-κB activation and active Akt signaling were required for the survival, or whether active Akt alone was sufficient. […]
Indirect immunostaining of HUVEC and EGFP expression were performed following standard protocol (Ruegg et al., I.c.). […] Ail samples were analyzed with a FACScan II® and Cell Quest® software (Becton Dickinson, Mountain View Calif., USA).

HUVEC [1] = test: Detection of apoptotic HUVEC in culture (YoPro-1 staining); conditions: spheroids; TNF±IFNγ
Protocol: To test whether integrins modulate TNF-induced apoptosis, we cultured HUVEC on fibronectin (integrin-dependent adhesion) or as spheroids (integrin-independent adhesion) in the absence or presence of TNF (200 ng/ml) and of IFNγ (330 ng/ml), an enhancer of TNF cytotoxicity (Dealtry et al., Eur. J. Immunol. 17, 689-693 (1987)). […] In contrast, spheroids treated with TNF±IFNγ increased uptake of YoPro-1 (an increase suppressed by caspase inhibitors BOC, Z-VAD, IETD and DVED), DNA fragmentation, caspase-3 activation and cleavage of PARP (FIG. 2a, 2b and data not shown). To examine the effect of TNF±IFNγ on cell survival we determined the viability of untreated and treated cultures. […] Treatment with IFNγ alone was not cytotoxic (data not shown). HUVEC adhere to immobilized fibronectin via αVβ3 and α5β1 integrins (Rüegg et al., Nature Med. 4, 408-414 (1998)). To test for the individual contribution of these integrins to cell survival on fibronectin, we cultured HUVEC on plastic-immobilized mAbs (imAbs) directed against αVβ3, α1, α5 and α4 integrins.
For morphological evaluation, spheroids were embedded in Epon (Fluka Chemie) and thick sections were stained with 1% Methylene/Azur blue. For immunostaining, frozen spheroid sections were fixed in 4% (Fluka Chemis, Buchs, Switzerland) formaldehyde. After blocking with 1% BSA, sections were sequentially incubated for 1 hour with primary mAb (20 μg/ml) and a Cyan3-labeled GaM antiserum (West Grove, Pa., USA). For the TUNEL reaction, frozen spheroids sections were fixed in 4% paraformaledhyde and processed as described (Ruegg et al., I.e.). Spherouids were countsrstained with propidium iodide for total DNA content. […] The apoptosis index was determined by calculating the ratio between the green (TUNEL staining of fragmented DNA) and red (propidium iodide staining by total DNA) pixels. Number of analyzed spheroids per condition were: C, 31; T, 21; TI, 12. […] Cultures were viewed by inverted fluorescence microscopy (Leica DM IRB, Heerbrugg, Switzerland). […]

HUVEC [2] = test: HUVEC spheroid formation (aggregation) in BSA-coated wells; conditions: mAbs 10 μg/ml, EDTA 5 mM, evaluated at 6 and 16 hours
Protocol: To test the effect of integrin ligation on TNF-induced apoptosis we identified conditions where endothelial cells could be cultured without integrin-dependent adhesion. Single cell suspensions of endothelial cells rapidly die by anoikis (Meredith et al., Mol. Biol. Cell 4, 953-961 (1993)) thus precluding further analysis. But by seeding human umbilical vein endothelial cells (HUVEC) at high density (1.0×10^6 cells/ml) in BSA-coated wells multicellular spheroids formed within 2-4 hours, and could be maintained for over 24 hours dependent on VE-cadherin and without any detectable contribution from integrins.
HUVEC were collected by trypsinization, resuspended in complete medium at 1.0×10^6 cells/ml and 1 ml/well were seeded into 12 wells non-tissue culture plates (Evergreen Scientific, Los Angeles, Calif., USA) previously coated with 1% BSA. For aggregation studies, 200 μl of the cell suspension were seeded into 1% BSA-coated microwells of ELISA plates (Maxisorp II, NUNC, Roskilde, Denmark) alone or in the presence of mAbs (10 μg/ml), EDTA (5 mM) or Ca^2+/EDTA (10/5 mM). Spheroid formation was evaluated at 6 hours and 16 hours. Micrographs were take with a Televal 31 microscope (Cart Zeiss AG, Zürich; Switzerland).

HUVEC [3] = test: Death ligand cytotoxicity on fibronectin-cultured HUVEC with EMD121974 (viability); conditions: EMD121974 300 μM, ligand 200 ng/ml, overnight
Protocol: FIG. 8. Decreased integrin ligation enhances TNF-, TRAIL- and FasL-induced cytotoxicity in vitro. HUVEC were cultured overnight on fibronectin coated microtiter plates in the absence (control) or presence of EMD121974 (300 μM), TNF (200 ng/ml), FasL (200 ng/ml), TRAIL (200 ng/ml), LIGHT (200 ng/ml), and IFNγ (330 ng/ml) as indicated. Viability was determined by MST assays.

Molecule: O=c1cc(N2CCOCC2)oc2c(-c3ccccc3)cccc12 [LY294002]
- inhibition of ICAM-1 expression induced by TNF (ICAM-1 expression): did not inhibit

Molecule: CC(NC(=O)C(NC(=O)OCc1ccccc1)C(C)C)C(=O)NC(CC(=O)O)C(=O)CF (stereo not drawn) [Z-VAD] (Cbz-Val-Ala-Asp-CH2F; configuration not given here)
- effect of caspase inhibitor on increased YoPro-1 uptake of spheroids treated with TNF±IFNγ (HUVEC [1]): suppressed

Molecule: O=C(O)CN(CCN(CC(=O)O)CC(=O)O)CC(=O)O [EDTA]
- HUVEC spheroid formation (HUVEC [2]): blocked spheroid formation

Molecule: IETD
- effect of caspase inhibitor on increased YoPro-1 uptake of spheroids treated with TNF±IFNγ (HUVEC [1]): suppressed

Molecule: COC[C@H]1OC(=O)c2coc3c2[C@@]1(C)C1=C(C3=O)[C@@H]2CCC(=O)[C@@]2(C)C[C@H]1OC(C)=O [wortmannin]
- inhibition of ICAM-1 expression induced by TNF (ICAM-1 expression): did not inhibit

B1: FasL: death ligand of the TNF-ligand family (Fas ligand) (protein, UniProt P48023 130-281, looked up)
Tumor necrosis factor ligand …: QIGHPSPPPEKKELRKVAHLTGKSNSRSMPLEWEDTYGIVLLSGVKYKKGGLVINETGLYFVYSKVYFRGQSCNNLPLSHKVYMRNSKYPQDLVMMEGKMMSYCTTGQMWARSSYLGAVFNLTSADHLYVNVSELSLVNFEESQTFFGLYKL
- sensitivity to pro-apoptotic effects of death ligand in the presence of EMD121974 (synergism with αVβ3-blockage) (HUVEC [3]): Increased sensitivity

B2: LIGHT: ligand binding to receptors lacking a death domain (protein, UniProt O43557 83-240, looked up)
Tumor necrosis factor ligand …: LIQERRSHEVNPAAHLTGANSSLTGSGGPLLWETQLGLAFLRGLSYHDGALVVTKAGYYYIYSKVQLGGVGCPLGLASTITHGLYKRTPRYPEELELLVSQQSPCGRATSSSRVWWDSSFLGGVVHLEAGEKVVVRVLDERLVRLRDGTRSYFGAFMV
- sensitivity to pro-apoptotic effects of death ligand in the presence of EMD121974 (synergism with αVβ3-blockage) (HUVEC [3]): no synergism

B3: TRAIL: death ligand of the TNF-ligand family (protein, UniProt P50591 1-281, looked up)
Tumor necrosis factor ligand …: MAMMEVQGGPSLGQTCVLIVIFTVLLQSLCVAVTYVYFTNELKQMQDKYSKSGIACFLKEDDSYWDPNDEESMNSPCWQVKWQLRQLVRKMILRTSEETISTVQEKQQNISPLVRERGPQRVAAHITGTRGRSNTLSSPNSKNEKALGRKINSWESSRSGHSFLSNLHLRNGELVIHEKGFYYIYSQTYFRFQEEIKENTKNDKQMVQYIYKYTSYPDPILLMKSARNSCWSKDAEYGLYSIYQGGIFELKENDRIFVSVTNEHLIDMDHEASFFGAFLVG
- sensitivity to pro-apoptotic effects of death ligand in the presence of EMD121974 (synergism with αVβ3-blockage) (HUVEC [3]): Increased sensitivity

Source: patent publication US20090035270A1, “COMBINATION THERAPY USING ANTI-ANGIOGENIC AGENTS AND TNF alpha” (priority 2001, published 2009)
